What was measured:
Type in all cases: biochemical
Conditions in all cases: 1 μM inhibitor concentration
MSK1 = MSK1 (Homo sapiens (Human), UniProt O75582); assay: MSK1 kinase selectivity assay
Procedure: MSK1 (5-20 mU diluted in 20 mM MOPS pH 7.5, 1 mM EDTA, 0.01% Brij35, 0.1% b-mercaptoethanol, 1 mg/ml BSA) is assayed against a modified Crosstide peptide […] in a final volume of 25.5 μl containing 8 mM MOPS pH7.0, 0.2 mM EDTA, 30 μM substrate peptide, 10 mM magnesium acetate and 0.02 mM [33P-g-ATP](50-1000 cpm/pmole) and incubated for 30 min at room temperature Assays are stopped by addition of 5 μl of 0.5 M (3%) orthophosphoric acid and then harvested onto P81 Unifilter plates with a wash buffer of 50 mM orthophosphoric acid.

PRAK = PRAK (Homo sapiens (Human), UniProt Q8IW41); assay: PRAK kinase selectivity assay
Procedure: PRAK (5-20 mU diluted in 50 mM Na-b-glycerophosphate pH 7.5, 0.1 mM EGTA, 0.1% b-mercaptoethanol, 1 mg/ml BSA) is assayed against […] in a final volume of 25.5 μl containing 50 mM Na-b-glycerophosphate pH 7.5, 0.1 mM EGTA, 30 μM substrate peptide, 10 mM magnesium acetate and 0.02 mM [33P-g-ATP] (50-1000 cpm/pmole) and incubated for 30 min at room temperature. Assays are stopped by addition of 5 μl of 0.5 M (3%) orthophosphoric acid and then harvested onto P81 Unifilter plates with a wash buffer of 50 mM orthophosphoric acid.

CAMK1 = CAMK1 (Homo sapiens (Human), UniProt Q14012); assay: CAMK1 kinase selectivity assay
Procedure: 5-20 mU of CAMK-1 (diluted in 50 mM Tris (pH 7.5), 0.1 mM EGTA, 1 mg/ml BSA, 0.1%, b-Mercaptoethanol) is assayed against substrate peptide ([…]) in a final volume of 25.5 μl containing 50 mM Tris (pH 7.5), 0.1 mM EGTA, 0.5 mM CaCl2, 0.3 μM calmodulin, 0.1%, b-Mercaptoethanol, 300 μM substrate peptide, 10 mM magnesium acetate and 0.05 mM [33P-g-ATP](500-1000 cpm/pmole) and incubated for 30 mins at room temperature. Assays are stopped by addition of […] of 0.5M (3%) orthophosphoric acid. Assays are harvested onto P81 Unifilter plates using a wash buffer of 50 mM orthophosphoric acid.

PHK = PHK kinase selectivity assay
Procedure: […] (5-20 mU diluted in 50 mM Na-b-glycerophosphate pH 7.0, 0.1% b-mercaptoethanol) is assayed against phosphorylase b peptide ([…]) in a final volume of 25.5 μl containing 50 mM Tris pH 8.6, 50 mM Na-b-glycerophosphate, 0.04 mM CaCl2, phosphorylase b peptide (0.196 mM), 10 mM magnesium acetate, 0.02 mM [33P-g-ATP] (500-1000 cpm/pmole) then incubated for 15 min at room temperature. Assays are stopped by addition of 5 μl of 0.5 M (3%) orthophosphoric acid and then harvested onto P81 Unifilter plates with a wash buffer of 50 mM orthophosphoric acid.

PLK1 = PLK1 (Homo sapiens (Human), UniProt P53350); assay: PLK1 kinase selectivity assay
Procedure: (§1) PLK1 (5-20 mU diluted in 50 mM Tris pH 7.5, 0.1 mM EGTA, 0.1% b-mercaptoethanol, 1 mg/ml BSA, 100 μM Vanadate) is assayed against a substrate peptide ([…]) in a final volume of 25.5 μl containing 50 mM Tris pH 7.5, 0.05% b-mercaptoethanol, 10 μM Vanadate, 300 μM substrate peptide, 10 mM magnesium acetate and 0.005 mM [33P-g-ATP] (50-1000 cpm/pmole) and incubated for 30 min at room temperature. Assays are stopped by addition of 5 μl of 0.5 M (3%) orthophosphoric acid and then harvested onto P81 Unifilter plates with a wash buffer of 50 mM orthophosphoric acid.
as §1, with “100 µM” for “100 μM”, “[…]” for “10 μM”

MEKK1 = MEKK1 (Homo sapiens (Human), UniProt Q13233); assay: MEKK1 kinase selectivity assay
Procedure: MEKK1 (5-20 mU diluted in 50 mM Tris pH 7.5, 0.1 mM EGTA, 0.1% 0-mercaptoethanol, 1 mg/ml BSA) is assayed against MBP in a final volume of 25.5 μl containing 50 mM Tris pH 7.5, 0.1 mM EGTA, 0.33 mg/ml MBP, 10 mM magnesium acetate and 0.02 mM [33P-γ-ATP] (50-1000 cpm/pmole) and incubated for 30 min at room temperature. Assays are stopped by addition of 5 μl of 0.5 M (3%) orthophosphoric acid and then harvested onto P81 Unifilter plates with a wash buffer of 50 mM orthophosphoric acid.

EPH-A2 = EPH-A2 (Homo sapiens (Human), UniProt P29317); assay: EPH-A2 kinase selectivity assay
Procedure: (§2) EPH-A2 (5-20 mU diluted in 50 mM Tris pH 7.5, 0.1 mM EGTA, 1 mg/ml BSA) is assayed against a substrate peptide (Poly Glut Tyr) in a final volume of 25.5 μl containing 50 mM Tris pH 7.5, 0.1 mg/ml substrate peptide, 10 mM magnesium acetate and 0.05 mM [33P-g-ATP] (50-1000 cpm/pmole) and incubated for 30 min at room temperature. Assays are stopped by addition of 5 μl of 0.5 M (3%) orthophosphoric acid and then harvested onto P81 Unifilter plates with a wash buffer of 50 mM orthophosphoric acid.

EPH-B3 = EPH-B3 (Homo sapiens (Human), UniProt P54753); assay: EPH-B3 kinase selectivity assay
Procedure: as §2, with “EPH-B3 (5-20 mU” for “EPH-A2 (5-20 mU”, “pH 7.5, 1 mg/ml substrate” for “pH 7.5, 0.1 mg/ml substrate”, “acetate and 0.005 mM [33P-g-ATP]” for “acetate and 0.05 mM [33P-g-ATP]”

EPH-A2, sequence (P29317 24-976, species assumed): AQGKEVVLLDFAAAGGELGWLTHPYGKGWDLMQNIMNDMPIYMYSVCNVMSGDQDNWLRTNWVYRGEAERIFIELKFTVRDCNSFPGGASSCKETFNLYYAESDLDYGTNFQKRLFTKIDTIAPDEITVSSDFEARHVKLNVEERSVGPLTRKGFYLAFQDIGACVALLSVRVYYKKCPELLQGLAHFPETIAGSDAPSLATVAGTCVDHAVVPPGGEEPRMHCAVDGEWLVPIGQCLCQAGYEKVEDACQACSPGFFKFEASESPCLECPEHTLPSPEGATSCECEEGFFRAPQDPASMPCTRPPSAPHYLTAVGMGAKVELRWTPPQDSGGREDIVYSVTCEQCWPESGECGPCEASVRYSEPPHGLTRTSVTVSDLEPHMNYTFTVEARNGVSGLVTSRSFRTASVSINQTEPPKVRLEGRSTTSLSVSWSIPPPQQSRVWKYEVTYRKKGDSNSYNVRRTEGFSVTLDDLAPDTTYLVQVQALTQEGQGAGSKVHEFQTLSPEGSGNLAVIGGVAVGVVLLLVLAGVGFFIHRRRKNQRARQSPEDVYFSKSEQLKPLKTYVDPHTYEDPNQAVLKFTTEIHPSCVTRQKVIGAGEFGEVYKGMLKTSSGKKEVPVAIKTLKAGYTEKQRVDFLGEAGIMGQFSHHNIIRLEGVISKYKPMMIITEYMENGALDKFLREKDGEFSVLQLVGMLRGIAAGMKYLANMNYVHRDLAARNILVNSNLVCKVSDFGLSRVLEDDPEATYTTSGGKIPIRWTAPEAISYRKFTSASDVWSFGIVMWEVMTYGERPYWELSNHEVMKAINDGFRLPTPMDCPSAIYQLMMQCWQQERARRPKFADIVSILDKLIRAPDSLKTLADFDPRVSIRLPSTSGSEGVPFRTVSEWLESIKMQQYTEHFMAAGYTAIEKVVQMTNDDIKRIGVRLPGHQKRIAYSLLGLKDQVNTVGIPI
PRAK, sequence (Q8IW41 whole entry, species assumed): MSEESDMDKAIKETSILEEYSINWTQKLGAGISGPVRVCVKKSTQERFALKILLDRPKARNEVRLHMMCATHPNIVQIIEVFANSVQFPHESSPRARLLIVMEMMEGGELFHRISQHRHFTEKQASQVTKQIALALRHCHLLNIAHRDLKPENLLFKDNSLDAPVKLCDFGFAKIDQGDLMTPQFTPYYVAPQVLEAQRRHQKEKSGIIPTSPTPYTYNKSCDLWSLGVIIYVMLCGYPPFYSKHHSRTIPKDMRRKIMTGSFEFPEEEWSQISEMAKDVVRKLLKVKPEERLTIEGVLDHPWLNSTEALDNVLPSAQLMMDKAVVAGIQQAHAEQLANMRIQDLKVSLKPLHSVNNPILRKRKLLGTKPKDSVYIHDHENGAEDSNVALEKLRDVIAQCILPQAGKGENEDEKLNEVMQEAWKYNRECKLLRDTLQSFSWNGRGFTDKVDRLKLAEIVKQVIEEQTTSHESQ
EPH-B3, sequence (P54753 34-998, species assumed): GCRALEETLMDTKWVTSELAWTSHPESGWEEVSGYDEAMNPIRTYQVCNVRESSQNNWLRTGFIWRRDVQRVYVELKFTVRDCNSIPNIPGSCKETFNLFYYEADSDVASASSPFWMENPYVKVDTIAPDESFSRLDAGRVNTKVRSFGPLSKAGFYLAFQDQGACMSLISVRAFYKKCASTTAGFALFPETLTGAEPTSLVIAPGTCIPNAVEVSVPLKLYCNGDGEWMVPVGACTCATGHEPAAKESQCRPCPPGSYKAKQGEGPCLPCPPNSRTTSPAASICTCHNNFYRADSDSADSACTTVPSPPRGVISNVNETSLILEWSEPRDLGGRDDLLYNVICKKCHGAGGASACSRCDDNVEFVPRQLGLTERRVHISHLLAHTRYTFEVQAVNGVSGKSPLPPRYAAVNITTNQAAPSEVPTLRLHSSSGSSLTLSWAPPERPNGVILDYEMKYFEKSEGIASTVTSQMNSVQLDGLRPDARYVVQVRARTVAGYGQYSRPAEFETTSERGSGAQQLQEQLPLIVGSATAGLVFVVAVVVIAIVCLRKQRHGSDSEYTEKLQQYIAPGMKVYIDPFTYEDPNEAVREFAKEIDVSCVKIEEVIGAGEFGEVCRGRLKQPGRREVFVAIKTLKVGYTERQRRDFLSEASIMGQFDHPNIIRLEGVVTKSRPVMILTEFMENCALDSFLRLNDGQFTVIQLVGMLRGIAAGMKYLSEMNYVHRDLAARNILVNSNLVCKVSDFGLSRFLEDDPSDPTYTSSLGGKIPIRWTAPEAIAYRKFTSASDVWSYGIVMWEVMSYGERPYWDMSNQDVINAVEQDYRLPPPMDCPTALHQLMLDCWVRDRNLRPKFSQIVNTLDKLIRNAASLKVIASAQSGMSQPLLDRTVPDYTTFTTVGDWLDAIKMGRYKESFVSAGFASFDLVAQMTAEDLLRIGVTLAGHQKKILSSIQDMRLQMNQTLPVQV
MEKK1, sequence (Q13233 whole entry, species assumed): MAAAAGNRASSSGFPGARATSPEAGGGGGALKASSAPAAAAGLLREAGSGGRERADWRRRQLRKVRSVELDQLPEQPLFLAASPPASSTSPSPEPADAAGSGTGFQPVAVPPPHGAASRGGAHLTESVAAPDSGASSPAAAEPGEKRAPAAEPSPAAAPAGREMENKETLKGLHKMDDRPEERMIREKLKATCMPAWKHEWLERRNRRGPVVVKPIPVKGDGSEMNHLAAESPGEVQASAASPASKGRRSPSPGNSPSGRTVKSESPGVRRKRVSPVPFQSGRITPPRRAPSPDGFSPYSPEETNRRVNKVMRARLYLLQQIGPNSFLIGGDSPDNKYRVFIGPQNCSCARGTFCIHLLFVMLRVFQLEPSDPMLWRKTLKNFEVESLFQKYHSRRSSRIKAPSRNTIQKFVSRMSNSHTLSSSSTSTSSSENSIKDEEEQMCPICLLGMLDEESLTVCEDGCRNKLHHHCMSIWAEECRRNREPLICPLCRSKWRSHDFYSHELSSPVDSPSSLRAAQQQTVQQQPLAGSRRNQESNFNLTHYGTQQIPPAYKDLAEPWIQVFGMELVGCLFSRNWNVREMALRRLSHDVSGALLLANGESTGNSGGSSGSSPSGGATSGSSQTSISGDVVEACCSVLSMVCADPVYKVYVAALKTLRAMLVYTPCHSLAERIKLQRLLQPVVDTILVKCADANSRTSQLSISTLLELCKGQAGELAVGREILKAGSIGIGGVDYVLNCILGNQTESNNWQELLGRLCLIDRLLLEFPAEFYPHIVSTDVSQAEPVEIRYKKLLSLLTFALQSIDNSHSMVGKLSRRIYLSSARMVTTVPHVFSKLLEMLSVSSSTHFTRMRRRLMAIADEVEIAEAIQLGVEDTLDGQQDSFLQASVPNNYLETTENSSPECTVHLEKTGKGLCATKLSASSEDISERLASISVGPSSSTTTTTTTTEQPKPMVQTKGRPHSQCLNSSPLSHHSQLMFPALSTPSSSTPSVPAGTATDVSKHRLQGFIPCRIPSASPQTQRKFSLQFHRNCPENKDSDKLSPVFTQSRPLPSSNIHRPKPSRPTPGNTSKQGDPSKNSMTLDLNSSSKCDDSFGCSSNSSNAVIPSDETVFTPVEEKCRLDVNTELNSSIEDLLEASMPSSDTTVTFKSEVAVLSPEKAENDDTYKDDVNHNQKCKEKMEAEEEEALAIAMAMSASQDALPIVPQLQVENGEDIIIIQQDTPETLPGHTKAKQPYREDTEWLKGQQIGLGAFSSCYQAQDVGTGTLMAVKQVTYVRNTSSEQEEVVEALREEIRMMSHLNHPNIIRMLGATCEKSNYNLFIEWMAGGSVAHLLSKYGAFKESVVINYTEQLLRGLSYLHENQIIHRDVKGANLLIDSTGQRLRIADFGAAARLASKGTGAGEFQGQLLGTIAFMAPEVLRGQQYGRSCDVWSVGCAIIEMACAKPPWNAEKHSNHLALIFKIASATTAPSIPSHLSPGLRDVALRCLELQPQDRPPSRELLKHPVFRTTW
PLK1, sequence (P53350 whole entry, species assumed): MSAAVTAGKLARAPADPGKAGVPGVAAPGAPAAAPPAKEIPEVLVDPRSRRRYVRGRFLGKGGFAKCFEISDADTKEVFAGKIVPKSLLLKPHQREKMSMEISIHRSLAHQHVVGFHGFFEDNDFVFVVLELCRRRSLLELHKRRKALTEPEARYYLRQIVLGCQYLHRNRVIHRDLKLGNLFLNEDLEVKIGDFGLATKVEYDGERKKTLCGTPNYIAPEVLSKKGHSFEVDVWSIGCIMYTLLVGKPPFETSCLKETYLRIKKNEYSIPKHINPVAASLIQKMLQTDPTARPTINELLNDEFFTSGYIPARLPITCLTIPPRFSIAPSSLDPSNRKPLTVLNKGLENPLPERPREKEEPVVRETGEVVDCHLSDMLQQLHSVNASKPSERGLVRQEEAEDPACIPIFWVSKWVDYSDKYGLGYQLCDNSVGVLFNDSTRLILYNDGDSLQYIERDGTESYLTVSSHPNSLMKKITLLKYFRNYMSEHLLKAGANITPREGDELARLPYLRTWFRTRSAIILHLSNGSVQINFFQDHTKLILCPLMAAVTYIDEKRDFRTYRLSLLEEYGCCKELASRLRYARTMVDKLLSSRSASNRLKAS

In the case of `c1cc2[nH]nc3c2c(n1)N(C1CCOCC1)CCC3` [Example 29, 6-(tetrahydro-2H-pyran-4-yl)-6,7,8,9-tetrahydro-2H-1,2,5,6-tetraazabenzo[cd]azulene], the “percentage inhibition of MSK1” value (MSK1) is reported as 7 percentage, the “percentage inhibition of PRAK” value (PRAK) is reported as 0 percentage and the “percentage inhibition of CAMK1” value (CAMK1) is reported as 0 percentage. The “percentage inhibition of PHK” value (PHK) was 35 percentage, the “percentage inhibition of PLK1” value (PLK1) was 0 percentage and the “percentage inhibition of MEKK1” value (MEKK1) was 0 percentage. For the same molecule, the “percentage inhibition of EPH-A2” value (EPH-A2) was 0 percentage and the “percentage inhibition of EPH-B3” value (EPH-B3) was 0 percentage.
With `c1cc2[nH]nc3c2c(n1)N(C1CCC1)CCC3` [Example 22, 6-cyclobutyl-6,7,8,9-tetrahydro-2H-1,2,5,6-tetraazabenzo[cd]azulene] the “percentage inhibition of MSK1” value (MSK1) was 2 percentage, the “percentage inhibition of PRAK” value (PRAK) was 0 percentage and the “percentage inhibition of CAMK1” value (CAMK1) was 0 percentage. For the same molecule, the “percentage inhibition of PHK” value (PHK) was 41 percentage, the “percentage inhibition of PLK1” value (PLK1) was 4 percentage and the “percentage inhibition of MEKK1” value (MEKK1) was 0 percentage. The “percentage inhibition of EPH-A2” value (EPH-A2) was 0 percentage and the “percentage inhibition of EPH-B3” value (EPH-B3) was 0 percentage.
In the case of `CC(C)n1ncc2c1CN(C1CCN(C)CC1)c1nccc3[nH]nc-2c13` [Example 68], the “percentage inhibition of MSK1” value (MSK1) is reported as 30 percentage, the “percentage inhibition of PRAK” value (PRAK) is reported as 13 percentage and the “percentage inhibition of CAMK1” value (CAMK1) is reported as 45 percentage. The “percentage inhibition of PHK” value (PHK) was 43 percentage, the “percentage inhibition of PLK1” value (PLK1) was 21 percentage and the “percentage inhibition of MEKK1” value (MEKK1) was 0 percentage. The “percentage inhibition of EPH-A2” value (EPH-A2) was 0 percentage and the “percentage inhibition of EPH-B3” value (EPH-B3) was 5 percentage.
With `c1cc2[nH]nc3c2c(n1)N(C1CCCC1)CCC3` [Example 23, 6-cyclopentyl-6,7,8,9-tetrahydro-2H-1,2,5,6-tetraazabenzo[cd]azulene] the “percentage inhibition of MSK1” value (MSK1) was 2 percentage, the “percentage inhibition of PRAK” value (PRAK) was 0 percentage and the “percentage inhibition of CAMK1” value (CAMK1) was 0 percentage. For the same molecule, the “percentage inhibition of PLK1” value (PLK1) was 3 percentage, the “percentage inhibition of MEKK1” value (MEKK1) was 0 percentage and the “percentage inhibition of EPH-A2” value (EPH-A2) was 0 percentage. The “percentage inhibition of EPH-B3” value (EPH-B3) was 0 percentage.
In the case of `CN1CCC(N2Cc3ccccc3-c3n[nH]c4ccnc2c34)CC1` [Example 55], the “percentage inhibition of MSK1” value (MSK1) is reported as 34 percentage, the “percentage inhibition of PRAK” value (PRAK) is reported as 18 percentage and the “percentage inhibition of CAMK1” value (CAMK1) is reported as 25 percentage. For the same molecule, the “percentage inhibition of PHK” value (PHK) was 73 percentage, the “percentage inhibition of PLK1” value (PLK1) was 28 percentage and the “percentage inhibition of MEKK1” value (MEKK1) was 5 percentage. The “percentage inhibition of EPH-A2” value (EPH-A2) was 0 percentage and the “percentage inhibition of EPH-B3” value (EPH-B3) was 12 percentage.

From patent US10918645B2 (LIFEARC, priority 2016, dated 2021)
